Laboratory results published in PMC10609143, “Inhibitory Mechanisms of Lekethromycin in Dog Liver Cytochrome P450 Enzymes Based on UPLC-MS/MS Cocktail Method” (Molecules, 2023).

Columns and labels:
Test in all cases: Irreversible inhibition (IC50 shift) in dog liver microsomes
Format in all cases: in vitro ADME
CYP2A6 = tested on: CYP2A6
Method: (§1) To characterize the reversible or irreversible mechanism of CYP450 inhibition via LKMS, the shifted IC50 values were used to determine whether the inhibition of LKMS on CYP450 was time-dependent. […] The above mixture was then incubated for another 30 min in the presence of NADPH. The concentrations of LKMS were designated as 0.2, 2, 4, 6, 8, 10, 20, 40, and 80 μM, and the concentration of each probe substrate was based on each Km value. The concentrations of the probe substrates of CYP2A6, CYP2B6, and CYP2D6 were at single concentrations approximating their Km values.

CYP2D6 = target: T1, CYP2D6 (Canis lupus familiaris, UniProt Q29473)
T1 construct: from tissue; host or cells: dog liver microsomes (DLM)
T1 sequence (Q29473 1-500): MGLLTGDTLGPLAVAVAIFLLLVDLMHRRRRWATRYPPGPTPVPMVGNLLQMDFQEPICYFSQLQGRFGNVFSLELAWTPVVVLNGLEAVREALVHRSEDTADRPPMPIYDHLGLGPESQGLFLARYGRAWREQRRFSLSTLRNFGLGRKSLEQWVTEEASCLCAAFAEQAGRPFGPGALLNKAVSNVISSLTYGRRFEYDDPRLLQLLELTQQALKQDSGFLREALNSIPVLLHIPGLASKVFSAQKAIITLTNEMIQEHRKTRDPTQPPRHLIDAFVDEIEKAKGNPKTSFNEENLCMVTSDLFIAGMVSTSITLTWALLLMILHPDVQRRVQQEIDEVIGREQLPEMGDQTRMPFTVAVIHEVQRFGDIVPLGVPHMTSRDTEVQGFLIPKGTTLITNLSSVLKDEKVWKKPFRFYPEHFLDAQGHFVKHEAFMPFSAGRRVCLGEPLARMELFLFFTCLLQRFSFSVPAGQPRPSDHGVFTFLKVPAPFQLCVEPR
Method: as §1

CYP2B6 = target: T2, CYP2B6 (Canis lupus familiaris, UniProt P24460)
T2 construct: from tissue; host or cells: dog liver microsomes (DLM)
T2 sequence (P24460 1-494): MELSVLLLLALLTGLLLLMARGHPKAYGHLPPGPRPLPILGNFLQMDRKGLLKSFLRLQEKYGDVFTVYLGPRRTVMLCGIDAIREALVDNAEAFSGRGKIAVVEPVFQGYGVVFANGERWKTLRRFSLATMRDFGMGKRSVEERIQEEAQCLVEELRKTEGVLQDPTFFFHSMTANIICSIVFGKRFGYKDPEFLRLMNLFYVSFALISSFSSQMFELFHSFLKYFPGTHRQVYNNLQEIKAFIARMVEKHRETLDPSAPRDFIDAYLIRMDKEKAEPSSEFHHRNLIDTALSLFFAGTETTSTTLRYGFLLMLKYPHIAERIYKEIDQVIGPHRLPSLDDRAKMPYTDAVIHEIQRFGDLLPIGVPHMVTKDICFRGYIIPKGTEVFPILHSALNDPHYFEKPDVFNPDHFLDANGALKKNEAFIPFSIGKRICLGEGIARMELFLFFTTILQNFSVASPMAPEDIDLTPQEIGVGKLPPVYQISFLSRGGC
Method: as §1

Lekethromycin [LKMS]
IC50 fold-shift, Shift Ratio (−NADPH/+NADPH) (CYP2A6; CYP2A6, 30 min preincubation at 37 °C with and without NADPH): 1.29 | Time-dependent inhibition (CYP2A6; CYP2A6, judged from IC50 fold-shift <1.5): might not be a time-dependent inhibitor | IC50 fold-shift, Shift Ratio (−NADPH/+NADPH) (CYP2D6; CYP2D6, 30 min preincubation at 37 °C with and without NADPH): 1.10 | Time-dependent inhibition (CYP2D6; CYP2D6, judged from IC50 fold-shift <1.5): might not be a time-dependent inhibitor | IC50 fold-shift, Shift Ratio (−NADPH/+NADPH) (CYP2B6; CYP2B6, 30 min preincubation at 37 °C with and without NADPH): 0.88 | Time-dependent inhibition (CYP2B6; CYP2B6, judged from IC50 fold-shift <1.5): might not be a time-dependent inhibitor
